Assay results: the supplement of paper PMC8498969

Legend:
HEK293 [1] = test: IC50 for inhibition of ZIKV NS1 production
Protocol: (§1)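 HEK293 cells in 1536-well plates were pre-treated with compound for 1 h, infected with ZIKV (MOI 1) for 24 h, and NS1 antigen (intra- plus extracellular) was measured by TR-FRET. Confirmation used 11-point 1:3 dilutions, and IC50 and maximal inhibition were fitted in GraphPad Prism.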

HEK293 [2] = test: cytotoxicity IC50 (ATP content, uninfected cells); higher = less cytotoxic; settings: infection: none
HEK293 [3] = test: maximal inhibition of ZIKV NS1 production (% inhibition); higher = stronger antiviral effect
Protocol: as §1

| Structure (SMILES) | IC50 (HEK293 [1]) | cytotoxicity IC50 (HEK293 [2]) | maximal inhibition (HEK293 [3]) |
| --- | --- | --- | --- |
| CC1=C(CO)C(=O)O[C@@H]([C@@H](C)[C@H]2CC[C@H]3[C@@H]4C[C@H]5O[C@]56[C@@H](O)C=CC(=O)[C@]6(C)[C@H]4CC[C@]23C)C1 | 2.8 µM | 2.8 µM | 102 |
| O=c1[nH]c2ccc(Cl)cc2c(N[C@@H]2CN3CCC2CC3)c1-c1nc2ccccc2[nH]1 | 0.41 µM | 3.3 µM | 100 |
| COC(=O)Nc1nc2cc(C(=O)c3cccs3)ccc2[nH]1 | 1.1 µM | > 100 µM | 68 |
| CCCCCC(=O)O[C@]1(C(C)=O)CC[C@H]2[C@@H]3CCC4=CC(=O)CC[C@]4(C)[C@H]3CC[C@@]21C | 50 µM | 7.9 µM | 99 |
| CO[C@H]1[C@H](O)[C@@H](O)[C@H](n2c3c(Cl)cccc3c3c4c(c5c6cccc(Cl)c6[nH]c5c32)C(=O)NC4=O)O[C@@H]1CO | 2.1 µM | 60 µM | 90 |
| OC[C@H]1O[C@@H](n2cnc3c(S)ncnc32)[C@H](O)[C@@H]1O | 8 µM | 4.1 µM | 99 |
| CSc1cccc(Nc2ncc3cc(-c4c(Cl)cccc4Cl)c(=O)n(C)c3n2)c1 | 8.4 µM | 6.6 µM | 98 |
| O[C@@H](CNC[C@H](O)[C@H]1CCc2cc(F)ccc2O1)[C@@H]1CCc2cc(F)ccc2O1 | 24 µM | > 100 µM | 94 |
| CC(=O)Nc1ccc([C@H](C)C(=O)Nc2ncc(C(C)C)s2)cc1 | 7.4 µM | > 100 µM | 90 |
| OC(c1cc(C(F)(F)F)nc2c(C(F)(F)F)cccc12)C1CCCCN1 (stereo unspecified) | 18 µM | > 100 µM | 97 |
| Cc1cc(Nc2cc(NC(=O)c3c(Cl)cccc3Cl)ccn2)nc(N)n1 | 35 µM | 70 µM | 97 |
| CNc1ccc2oc(C[C@H]3O[C@@]4(CC[C@H]3C)O[C@H]([C@H](C)C(=O)c3ccc[nH]3)[C@H](C)C[C@H]4C)nc2c1C(=O)O | 6.2 µM | 20 µM | 96 |
| COc1cc([C@@H]2c3cc4c(cc3[C@@H](O[C@@H]3O[C@@H]5CO[C@@H](c6cccs6)O[C@H]5[C@H](O)[C@H]3O)[C@H]3COC(=O)[C@H]23)OCO4)cc(OC)c1O | 1.2 µM | > 100 µM | 100 |
| COc1cc([C@@H]2c3cc4c(cc3[C@@H](O[C@@H]3O[C@@H]5CO[C@@H](C)O[C@H]5[C@H](O)[C@H]3O)[C@H]3COC(=O)[C@H]23)OCO4)cc(OC)c1O | 2.2 µM | > 100 µM | 102 |
| O=C1NCCc2[nH]c(-c3ccncc3)cc21 | 20 µM | > 100 µM | 85 |
| S=C(SSC(=S)N1CCCCC1)N1CCCCC1 | 0.87 µM | 0.097 µM | 86 |
| CCc1c2c(nc3ccc(OC(=O)N4CCC(N5CCCCC5)CC4)cc13)-c1cc3c(c(=O)n1C2)COC(=O)[C@]3(O)CC | 1.6 µM | > 100 µM | 97 |
| c1ccc2c(-c3cnn4cc(-c5ccc(N6CCNCC6)cc5)cnc34)ccnc2c1 | 6.1 µM | 80 µM | 106 |
| O=C1NC(=O)/C(=C/c2ccc3nccc(-c4ccncc4)c3c2)S1 | 1.9 µM | 1.4 µM | 82 |
| COc1ccc(-c2cc3c(C)nc(N)nc3n([C@H]3CC[C@H](OCCO)CC3)c2=O)cn1 | 1.5 µM | 0.47 µM | 78 |
| CO[C@@]12[C@H](COC(N)=O)C3=C(C(=O)C(C)=C(N)C3=O)N1C[C@@H]1N[C@@H]12 | 2.7 µM | 73 µM | 97 |
| C=CC(=O)N1CCc2ccc(-n3c(=O)ccc4cnc5ccc(-c6cnn(C)c6)cc5c43)cc21 | 13 µM | > 100 µM | 105 |
| CC[C@@]1(O)C(=O)OCc2c1cc1n(c2=O)Cc2cc3c(CN(C)C)c(O)ccc3nc2-1 | 0.051 µM | > 100 µM | 96 |
| C[C@@H](Oc1cc(-n2cnc3ccc(CN4CCN(C)CC4)cc32)sc1C(N)=O)c1ccccc1C(F)(F)F | 14 µM | > 100 µM | 98 |
| CCOC(=O)C1=C(C)NC(=S)NC1c1cccc(O)c1 (stereo unspecified) | 50 µM | > 100 µM | 89 |
| OCCCNc1cc(-c2ccnc(Nc3cccc(Cl)c3)n2)ccn1 | 0.79 µM | 60 µM | 103 |

| Structure (SMILES) | IC50 (HEK293 [1]) | cytotoxicity IC50 (HEK293 [2]) | maximal inhibition (HEK293 [3]) |
| --- | --- | --- | --- |
| O=C(Nc1ccncc1)C(=O)c1cn(Cc2ccc(Cl)cc2)c2ccccc12 | 1.3 µM | 70 µM | 39 |
| C[C@@H]1CC[C@@]2(OC1)O[C@H]1C[C@H]3[C@@H]4CC=C5C[C@@H](O[C@@H]6O[C@H](CO)[C@@H](O[C@@H]7O[C@@H](C)[C@H](O)[C@@H](O)[C@H]7O)[C@H](O)[C@H]6O[C@@H]6O[C@@H](C)[C@H](O)[C@@H](O)[C@H]6O)CC[C@]5(C)[C@H]4CC[C@]3(C)[C@H]1[C@@H]2C | 16 µM | 45 µM | 99 |
| CC(=O)OC[C@H]1O[C@@H]([S-])[C@H](OC(C)=O)[C@@H](OC(C)=O)[C@@H]1OC(C)=O.CCP(CC)CC.[Au+] | 3.5 µM | 3 µM | 107 |
| CCOC(=O)C1=C(C)NC2=C(C(=O)CC(C)(C)C2)C1c1ccc(-c2ccccc2)cc1 (stereo unspecified) | 17 µM | > 100 µM | 89 |
| C[n+]1cc2c3c(ccc2c2ccc4cc5c(cc4c21)OCO5)OCO3 | 2.9 µM | 6.4 µM | 96 |
| CNC1CCC(N(Cc2cccc(-c3ccncc3)c2)C(=O)c2sc3ccccc3c2Cl)CC1 (stereo unspecified) | 49 µM | > 100 µM | 94 |
| CC(C)n1nc(-c2cc3cc(O)ccc3[nH]2)c2c(N)ncnc21 | 16 µM | 77 µM | 78 |
| CC1=CC(=O)c2ccccc2C1=O | 44 µM | 45 µM | 101 |
| CC(C)C[C@H](NC(=O)[C@H](Cc1ccccc1)NC(=O)c1cnccn1)B(O)O | 0.025 µM | 0.04 µM | 95 |
| CCN1/C(=C/C=C/c2sc3ccccc3[n+]2CC)Sc2ccccc21 | 50 µM | 1.2 µM | 71 |
| Cc1ccc(-c2ncn(-c3ccc(Nc4nccc(-c5cccc(N6CCOCC6)c5)n4)cc3)n2)cn1 | 1.9 µM | 9.8 µM | 87 |
| CC(C)C[C@H](NC(=O)[C@@H](NC(=O)c1cccc(-c2ccccc2)n1)[C@@H](C)O)B(O)O | 0.059 µM | 0.3 µM | 95 |
| Clc1ccc(CCC(Cn2ccnc2)Sc2c(Cl)cccc2Cl)cc1 (stereo unspecified) | 39 µM | 16 µM | 97 |
| CC(=O)O[C@H]1C(=O)[C@@]2(C)[C@H]([C@H](OC(=O)c3ccccc3)[C@]3(O)C[C@H](OC(=O)[C@H](O)[C@@H](NC(=O)c4ccccc4)c4ccccc4)C(C)=C1C3(C)C)[C@]1(OC(C)=O)CO[C@@H]1C[C@@H]2O | 0.089 µM | > 100 µM | 38 |
| C=CCn1c(=O)c2cnc(Nc3ccc(N4CCN(C)CC4)cc3)nc2n1-c1cccc(C(C)(C)O)n1 | 1.7 µM | > 100 µM | 99 |
| CC[C@@]1(O)C(=O)OCc2c1cc1n(c2=O)Cc2cc3cc(O)ccc3nc2-1 | 0.047 µM | > 100 µM | 100 |
| CCN(CC)CCNC(=O)c1ccc2nc(-c3ccccc3)c(-c3ccc(CN4CCC(n5c(=O)[nH]c6ccccc65)CC4)cc3)nc2c1 | 60 µM | > 100 µM | 55 |
| CC[C@@H](C(=O)[C@@H](C)[C@@H](O)[C@H](C)[C@@H]1O[C@@H]([C@@H](CC)C(=O)O)CC[C@@H]1C)[C@H]1O[C@]2(C=C[C@@H](O)[C@]3(CC[C@@](C)([C@H]4CC[C@](O)(CC)[C@H](C)O4)O3)O2)[C@H](C)C[C@@H]1C | 17 µM | 27 µM | 106 |
| c1ccc2c(CCNc3ccc(Nc4ccncc4)cc3)c[nH]c2c1 | 23 µM | > 100 µM | 51 |
| O=c1[nH]c(=O)n([C@H]2C[C@H](O)[C@@H](CO)O2)cc1F | 0.92 µM | 60 µM | 98 |
| COc1ccc(-c2ccc3ncc4c(c3c2)n(-c2ccc(N3CCNCC3)c(C(F)(F)F)c2)c(=O)n4C)cn1 | 1.6 µM | 20 µM | 102 |
| CS[C@H]1SC[C@H]2C(=O)N(C)[C@@H](C(C)C)C(=O)OC[C@@H](NC(=O)c3cnc4ccccc4n3)C(=O)N[C@@H](C)C(=O)N(C)[C@@H]1C(=O)N(C)[C@@H](C(C)C)C(=O)OC[C@@H](NC(=O)c1cnc3ccccc3n1)C(=O)N[C@@H](C)C(=O)N2C | 0.017 µM | > 100 µM | 98 |
| O=C1CCc2ccc(OCCCCN3CCN(c4cccc(Cl)c4Cl)CC3)cc2N1 | 25 µM | 20 µM | 102 |
| CCc1c2c(nc3ccc(O)cc13)-c1cc3c(c(=O)n1C2)COC(=O)[C@]3(O)CC | 0.011 µM | > 100 µM | 61 |
| C#C[C@]1(OC(C)=O)CC[C@H]2[C@@H]3CCC4=C/C(=N/O)CC[C@@H]4[C@H]3CC[C@@]21CC | 43 µM | > 100 µM | 48 |
| Cc1ccc([N+](=O)[O-])[c]2c1[O][Hg]2 | 14 µM | 9 µM | 107 |
